Laboratory results reported in US20240390468A1, “SURVIVIN AND MAGE-A9 DUAL-TARGETED IMMUNOTHERAPY” (IMMUNOVACCINE TECHNOLOGIES INC., priority 2022, published 2024).

Columns and labels:
spleen cells = assay: Spleen cell studies (omission of peptide 223); format: cell-based
[1] = tested on: peptide-loaded RMA-S HHD cells; assay: Chromium 51 release assay (CTL assay); format: cell-based, mice; settings: effector:target 75:1, 50:1, 25:1; mice immunized with recombinant MAGE-A9 and poly(I:C)
[2] = molecular target: MHC class 1 allele A*02:01 (Homo sapiens, UniProt P04439, D140Y/D185E/D98H/E176V/E277Q/G131W/G231S/I119V/I121R/I166T/I218V/L300P/L318F/N151K/N90K/P208A/P217A/Q86G/Q94H/R138H/R169H/T345S); assay: REVEAL binding of HLA-A2 binding peptides; settings: Higher REVEAL score

- binding to MHC class 1 allele A*02:01 (in words) [2]: high binding
Sequence: ALSVMGVYV [MAGE-A9 223, MAGE-A9 peptide antigen]
- impact of omission on immunogenic potential of a final formulation (spleen cells): does not significantly impact
- CTL response (51Cr-release) [1]: elicited a response
